In paper PMC5847527, “Identification of a novel 2-oxindole fluorinated derivative as in vivo antitumor agent for prostate cancer acting via AMPK activation” (Scientific Reports, 2018):

Assays:
Cyclin D1 = Cyclin D1 level by Western blot in PC-3 and LNCaP cells; format: cell-based, human
Description: Figure 4 Cell Cycle analysis in 8c-treated prostate cancer cells. (A) PC-3 and LNCaP cells were treated with compound 8c for 24 hours and cell cycle analysis was analyzed by flow cytometry using Propidium Iodide (PI). Percentage of cells in subG0, G1, S, and G2/M phases is indicated in the histogram. (B) Levels of Cyclin D1, p-p53, p53, p21 and cleaved Caspase 3 (17 kDa fragment) were determined by Western blot. Upper panel, representative Western blot of two different experiments. β-tubulin (β-Tub) serves as a loading control. Lower panel, the densitometric analyses of bands represented as the mean ± SD of the two different experiments. *p < 0.05 and **p < 0.01 compared with the control group by the Student’s t-test.
There are many intracellular mechanisms whereby AMPK activation inhibits cell growth. […] To further investigate the mechanism underpinning the cell viability inhibitory effect of compound 8c, levels of Cyclin D1 were determined by Western blot in PC-3 and LNCaP cells.
Cells were lysed in Lysis buffer (50 mM Tris pH 7.4, 0.8 M NaCl, 5 mM MgCl2, 0.1% Triton X-100) containing Protease Inhibitor and Phosphatase inhibitor Cocktails (Roche, Basel, Switzerland). Protein concentrations were measured by BioRad™ protein assay kit (Richmond, CA, USA). […] Films were analyzed by densitometry. […]

PC-3 xenograft tumors = assay: PC-3 xenograft tumor growth in nude mice; format: in vivo; settings: 5 mg/Kg daily, 15 days
Excerpt: To validate the therapeutic value of the compound 8c against castration-resistant prostate cancer a murine xenograft model was employed. Due to the potent effect of compound 8c on the aggressive PC-3 cell line and in order to avoid unnecessary wasting of animals according to the 3 Rs guidelines (reduction, replacement, refinement) for the use of animals in research, we only use PC-3 cells for the in vivo studies. PC-3 tumors were induced in nude mice by subcutaneous injection of cells in the right flank of the mouse. When tumors reached a 70 mm^3 volume, mice were daily treated with 5 mg/Kg of compound 8c. In vehicle-treated mice, an increase in tumor growth volume was observed during the course of the study and at the end of experimentation (Fig. 8A).
Figure 8 Inhibition of prostate tumor xenograft growth in vivo by compound 8c. […]
Male immunodeficient nude-Foxn1 (nu/nu) mice (Envigo RMS, Barcelona, Spain), 4 to 6 week old, were used for all xenograft studies. […] Tumors were measured with external calipers and volume was calculated by the modified ellipsoidal formula as volume = length × (width)^2 × 0.52 mm^3 [52],[53]. At the end of the study, the mice were sacrificed by placing them in a CO2 gas-filled chamber, and the excised tumors were recovered and homogenized in lysis buffer for protein quantification and Western blotting.

Compound: O=C1Nc2ccccc2C1(F)Cc1ccc(-c2ccccc2)o1 (stereo not drawn) [Compound 8c, 3-fluoro-3-((5-phenylfuran-2-yl)methyl)indolin-2-one]
- Cyclin D1 level (Cyclin D1): marked decrease in Cyclin D1 level
- AMPK activation, ACC phosphorylation, Cyclin D1 and procaspase-3 levels in xenograft tumors (PC-3 xenograft tumors; Western blot of tumors): promoted AMPK activation, increased ACC phosphorylation, decreased Cyclin D1 and decreased procaspase-3 levels
- xenograft tumor growth (PC-3 xenograft tumors; subcutaneously, nude mice, vs vehicle): significantly reduced tumor growth
